Results taken from patent US20160228452A1, “TREATMENT OF METABOLIC DISEASES BY INHIBTION OF HTR2A OR HTR3” (Korea Advanced Institute of Science and Technology, priority 2014, published 2016).
“Also recorded” adds a separate entry of the source.

Key:
[1] = Metabolic analysis by indirect calorimetry (Oxymax/CLAMS); assay type: in vivo, mice
Procedure: (§1) To measure the metabolic rate, the mice were housed individually in an eight-chamber, open-circuit Oxymax/CLAMS (Columbus Instruments Comprehensive Lab Animal Monitoring System) system as previously described^33. Each mouse was assessed for 72 h in the fed state to determine their metabolic rates. PET imaging was performed using a microPET R4 scanner (Concorde Microsystems, Siemens) as previously described^34.

[2] = Blood chemistry analysis (serum cholesterol, LDL cholesterol, FFA, leptin by ELISA); assay type: in vivo; conditions: PCPA 300 mg/kg, 6 weeks, HFD-fed mice vs HFD-fed control
Procedure: Tissue serotonin was extracted by homogenization in extraction buffer containing 0.02% ascorbic acid in 0.1 M perchloric acid followed by centrifugation. The serotonin levels in the supernatants were measured via the liquid chromatography-mass spectrometry method. Serum leptin (Enzo Life Science, Farmingdale, N.Y., USA), LDL-cholesterol (Waco), and FFA (Biovision, Mountain View, Calif., USA) were measured using enzyme-linked immunosorbent assay (ELISA) kits.

[3] = tested on: genes involved in lipid metabolism and thermogenesis; experiment: Real-time RT-PCR of mouse adipose tissues; assay type: in vivo, mice
Procedure: Total RNA was extracted from the mouse tissues or cell lines using TRIzol reagent (Invitrogen) according to the manufacturer's protocol. After TURBO DNase (Invitrogen) treatment, 2 μg of total RNA was used to generate complementary DNA with Superscript III reverse transcriptase (Invitrogen). To analyze gene expression, real-time PCR was performed with a ViiA 7 Real-Time PCR system (Applied Biosystems) and the Power SYBR Green PCR master mix (Applied Biosystems). Relative quantification was based on the ddCt method, and ActB was used as an endogenous control (internal control).

[4] = Glucose tolerance test and insulin tolerance test; assay type: in vivo, mice; conditions: PCPA-treated HFD-fed mice vs HFD-fed control
Procedure: For the glucose tolerance tests, the mice were administered 2 g/kg D-glucose in PBS after overnight fasting. For the insulin tolerance tests, the mice were intraperitoneally injected with insulin (0.75 U/kg) after being fasted for 4 h. The blood glucose levels in blood samples obtained from tail veins 0, 15, 30, 45, 60, 90 and 120 min after injection were measured using a Gluco DR Plus glucometer (Allmedicus).

[5] = intraventricular injection, reference 19; cited from earlier work
BAT = experiment: 18F-FDG PET/CT glucose utilization of BAT; assay type: in vivo; conditions: PCPA-treated HFD-fed mice vs HFD-fed control
Procedure: as §1

eWAT, iWAT and BAT = experiment: Histological analysis of adipose tissues (H&E, Ucp1/Plin1 immunohistochemistry, TEM); assay type: in vivo, mice
Procedure: Inguinal, epididymal and interscapular adipose tissues were harvested, fixed in 4% (w/v) paraformaldehyde in PBS and embedded in paraffin. Then, 5-μm-thick tissue sections were deparaffinized, rehydrated and used for hematoxylin and eosin (H&E) staining, immunohistochemistry and immunofluorescence. For antigen retrieval, the slides were submerged in 10 mM sodium citrate (pH 6.0) and heated to 95° C. for 20 minutes. Visualization of Ucp1 and Plin1 was performed using a VECTASTAIN ABC Kit (PK-4001, Vector Laboratories, Burlingame, Calif., USA) according to the manufacturer's instructions. Briefly, the slides were incubated with BLOXALL Blocking solution (SP-6000, Vector Laboratories) followed by incubation with 2% normal goat serum for 30 min at room temperature to block non-specific binding. Sections were incubated with primary antibody against Ucp1 (ab10983, Abcam) or Plin1 (ab3526, Abcam) for 1 h at room temperature followed by 30-min incubation with a species-specific, biotinylated secondary antibody. The slides were incubated with Vectastain ABC-AP reagent for 30 min and then incubated with […] substrate (DAB, SK-4100, Vector Laboratories) for visualization. The stains and antibodies used for the immunofluorescence staining included BODIPY (BODIPY®493/503, Invitrogen), anti-5HT (ab10385, Abcam) and DAPI (D9542, Sigma). Electron microscopy images of BAT were obtained by transmission electron microscopy (Tecnai Spirit TEM) as previously described^35. Briefly, the BAT was first fixed with 2.5% glutaraldehyde, and after fixation, ultra-thin sections were cut, stained with uranyl acetate and lead citrate and then examined under an electron microscope.

[6] = High-fat-diet-induced obesity in mice: growth curves, body weight and eWAT mass; assay type: in vivo; conditions: PCPA 300 mg/kg daily i.p., 10 weeks, HFD-fed mice vs HFD-fed control
Excerpt: The generation of Tph^flox/flox mice, Adipoq-cre mice, and aP2-CreERT2 mice has previously been reported^17,30,31. C57BL/6J mice, Htr3a-targeted KO mice (B6.129X1-Htr3a^tm1jul/J, Htr3a KO) and leptin-deficient ob/ob mice (B6.V-Lep^ob/J) were purchased from the Jackson Laboratory (Bar Harbor, Me., USA). To create the adipose tissue-specific Tph1 KO mice, Tph1^flox/flox mice were crossed with Adipoq-Cre mice (Tph1 FKO mice) and aP2-CreERT2 mice (Tph1 AFKO mice). The mice were housed in climate-controlled, specific pathogen-free (SPF) barrier facilities under a 12-h light-dark cycle, and chow and water were provided ad libitum. The Institutional Animal Care and Use Committee at the Korea Advanced Institute of Science and Technology approved the experimental protocols for this study. Htr3a KO mice and Tph1^flox/flox mice were backcrossed with C57BL/6J mice for more than 10 generations. Cre-recombination of 6-week-old Tph1 AFKO mice was induced by intraperitoneal (IP) injection of 5 doses of 2 mg of tamoxifen (Sigma) for 1 week. We fed male mice (aged 8˜10 weeks) either on SCD (standard chow diet; 12% fat calories, Purina Laboratory Rodent Diets 38057) or HFD (60% fat calories, Research Diets D12492). PBS or 300 mg/kg PCPA was administered as a daily intraperitoneal injection. LP-533401 was dissolved in PEG-400 and 5% dextrose (40:60 ratio). Vehicle or 30 mg/kg LP-533401 was administered daily with a feeding needle. We randomly divided C57BL/6J mice into 2-4 groups. For transgenic mice, we compared data between KO mice and their WT littermates. No blinding was done.

[7] = PCPA-treated vs control mice, HFD for 6 weeks

N[C@@H](Cc1ccc(Cl)cc1)C(=O)O (racemic) [PCPA, p-chlorophenylalanine]
metabolic rates (metabolic cage data) on standard chow diet ([1]; PCPA 300 mg/kg for 6 weeks vs vehicle, SCD-fed mice): did not affect the metabolic rates; also recorded: no significant differences
O2 consumption [1, 7]: increased
carbon dioxide production (VCO2) [1, 7]: increased carbon dioxide production
energy expenditure [1, 7]: increased energy expenditure
heat production [1, 7]: increased
blood level of LDL cholesterol [2]: decreased
blood level of free fatty acid (FFA) [2]: decreased; also recorded: reduced
blood level of leptin [2]: decreased; also recorded: reduced
serum cholesterol [2]: reduced
Dio2 mRNA level in BAT ([3]; PCPA 300 mg/kg, 6 weeks): highest increase
thermogenic gene expression in BAT ([3]; PCPA 300 mg/kg, 6 weeks): increased thermogenic gene expression
Dio2 mRNA level in iWAT ([3]; PCPA-treated mice fed an HFD): increased
Ucp1 mRNA level in iWAT ([3]; PCPA-treated mice fed an HFD): increased
expression of lipogenic (triglyceride storage) genes in eWAT ([3]; PCPA-treated vs control mice, both SCD and HFD): suppressed expression
glucose tolerance ([4]; 2 g/kg glucose after overnight fasting): improved glucose tolerance
insulin sensitivity / insulin resistance ([4]; insulin 0.75 U/kg after 4 h fasting): improved; also recorded: reduced insulin resistance
appetite [5]: reduce appetite
body weight [5]: increase body weight
glucose (18F-FDG) uptake into BAT (BAT): significantly increased glucose uptake
iWAT adipocyte size, HFD vs SCD within PCPA-treated mice (eWAT, iWAT and BAT; 18-week-old PCPA-treated mice, HFD for 10 weeks compared with PCPA-treated mice fed an SCD): decreased adipocyte size
number and size of mitochondria in BAT (TEM) (eWAT, iWAT and BAT; HFD-fed mice with PCPA treatment for 6 weeks): increased size and number of mitochondria
eWAT cellular structure / cell damage (Plin1 staining) (eWAT, iWAT and BAT; PCPA 300 mg/kg for 6 weeks, SCD or HFD): normal cellular structures; also recorded: No gross cell damage was observed
browning of iWAT (Ucp1-expressing multilocular cells) (eWAT, iWAT and BAT; PCPA-treated mice): brown adipocyte-like multilocular cells that expressed Ucp1 were observed
density of the cristae in BAT mitochondria (eWAT, iWAT and BAT; PCPA-treated mice): increased
iWAT adipocyte size (eWAT, iWAT and BAT; PCPA-treated mice): decreased
multilocular adipocytes in BAT (eWAT, iWAT and BAT; PCPA-treated mice, HFD): increased multilocular adipocytes
BAT lipid droplet size (eWAT, iWAT and BAT; PCPA-treated vs control BAT, regardless of diet): decreased lipid droplet sizes
eWAT adipocyte size (eWAT, iWAT and BAT; PCPA-treated vs control mice, SCD or HFD): decreased adipocyte size; also recorded: did not increase the adipocyte size
body weight gain [6]: decreased weight gain; also recorded: reduction in body weight gain
eWAT mass [6]: reduced eWAT mass; also recorded: decreased eWAT
